Among the data in patent publication US4363812A, “3-(Tetrazol-5-yl), 4-methyl-8-alkoxy coumarins and anti-allergic compositions thereof” (priority 1978, dated 1982) are antiallergic activity, minimal effective dose and LD50 values, retold here.

Like-named read-outs stand apart in the source and are kept apart here.

Series [1] can be described thus: antiallergic activity (general statement). Particulars: compared with coumarin derivatives of Japanese Publication No. 64273/1975.
Series [2] concerns passive cutaneous anaphylaxis (PCA) mediated by homocytotropic antibodies (HTA). Put plainly: passive cutaneous anaphylaxis (PCA) test, oral, in rats. The following applies: Rattus norvegicus. Type of series: in vivo, rat (Wistar). The method, then:
With respect to the present 3-(1H-tetrazol-5-yl)coumarin derivatives, there was tested antiallergic activity concerning passive cutaneous anaphylaxis (PCA) mediated by homocytotropic antibodies (HTA) in rats.
(i) Preparation of antisera
2,4-Dinitrophenyl-coupled ascaris extract (DNP-As) used as antigen, was prepared according to the methods of Strejan et al [cf. J. Immunol., Vol. 98, 893(1967)] and Eisen [cf. J. Amer. Chem. Soc., Vol. 75. 4593(1953)]. Antisera containing HTA were prepared in rats according to the method of Tada and Okumura [cf. J. Immunol., Vol. 106, 1002(1971)] as follows:
Female wister rats weighing 180 to 200 g. were splenectomized and several days later immunized by injecting into all four footpads a total of 1 mg. of DNP-As mixed with 10^10 Bordetella pertussis. After 5 days, 0.5 mg. of DNP-As alone was injected subcutaneously into the back of rats. Eight days after the first immunization, blood was collected by aortic puncture under ether anaesthesea and antisera obtained by these procedures were pooled and stored at -80° C.
The titer of the pooled autiserum was determined in rats by the 72 hr. PCA which method was described in the following item (ii), i.e. the highest dilution of antiserum producing a diameter of approximately 5 mm. was usually 1:500.
(ii) Assessment of PCA in rats
Normal wister rats weighing 140 to 160 g. were sensitized passively by injection intradermal on the shaved back skin 0.05 ml. of the diluted antisera (1:30). After 72 hours, the animals were injected intravenously 1 ml. of physiological salt solution containing 2 mg. DNP-As and 2.5 mg. Evans' blue.
The present compounds to be tested were given orally 30 minutes before antigen challenge. The animals were exsanguinated 30 minutes after challenge with the antigens and the skins were exfoliated. The intensities of PCA were evaluated by measuring the amount of leaked dye. The amount of dye leaked as a result of PCA was extracted according to the method of Harada et al [cf. Jpn. J. Allergol., Vol. 15, 1(1966)] and measured photometrically.

Series [3] can be described thus: acute toxicity, oral, in mice. Type of series: in vivo. Particulars: mouse, in vivo, po. The method, then:
Moreover, the introduction of substituent groups such as an alkoxyl group, an alkenyloxy group and hydroxyl group to the 5, 6, 7 or 8 position of the coumarin ring brings the decrease of toxicity.
With respect to the present 3-(1H-tetrazol-5-yl)coumarin derivatives, there was tested acute toxicity in mice.
After normal female Slc: ddy mice 4 weeks old were purchased and fed preliminarily in this lavoratory for a week, these mice weighing 25-27 g. were used in the test. The present compounds to be tested, were suspended in a 10% gum arabic solution and administered orally […]. body weight to mice. Each dose level was given to a group of ten animals and the survivors were kept under observation for 6 days. The numbers of dead animals were counted and the LD50 values in mg./kg. body weight were calculated by the method of Litchfield-Wilcoxon.

[4] abbreviates: po, read-out: MED (minimum effective dose).
The mark [5] stands for this setting: LD50 (50% lethal dose), Table 1, orally in mice.
The mark [6] stands for this setting: read-out: MED (minimum effect dose).
The mark [7] stands for this setting: Table 4, oral, female Slc: ddy mice, 6 days observation, Litchfield-Wilcoxon, read-out: LD50.
Setting [8] is: Table 3, oral 30 minutes before antigen challenge, rats, lowest dose significantly decreasing leaked dye vs control, read-out: MED (minimum effect dose).

In the case of `O=c1oc2ccccc2cc1-c1nnn[nH]1`, the antiallergic activity entry in series [1] was “stronger antiallergic activity”.
With `Cc1c(-c2nnn[nH]2)c(=O)oc2c(Cl)cccc12` [Compound I, reference compound], the minimal effective dose in series [2] (setting [4]) amounted to 6.25 mg/kg. Further, in series [3] (setting [5]), the LD50 (in general, the dose expected to kill half of the subjects tested) at 144 h was found to be 1040 mg/kg.
In the case of `CCCCCOc1cccc2cc(-c3nnn[nH]3)c(=O)oc12` [Example 1, 8-n-Pentyloxy-3-(1H-tetrazol-5-yl)coumarin], the minimal effective dose in series [2] (setting [4]) and in series [2] (setting [6]) was 1.56 mg/kg throughout. In addition, the LD50 at 144 h in series [3] (setting [5]) and in series [3] (setting [7]) was 1330 mg/kg each time.
As to `CCCCOc1cc(C)cc2cc(-c3nnn[nH]3)c(=O)oc12` [Example 2, 8-n-Butoxy-6-methyl-3-(1H-tetrazol-5-yl)coumarin], the minimal effective dose in series [2] (setting [4]) and in series [2] (setting [6]) was 0.39 mg/kg throughout. The median lethal dose (LD50) at 144 h in series [3] (setting [5]) and in series [3] (setting [7]) was 1870 mg/kg throughout.
Regarding `COc1cccc2cc(-c3nnn[nH]3)c(=O)oc12` [Example 3, 8-Methoxy-3-(1H-tetrazol-5-yl)coumarin], the minimal effective dose in series [2] (setting [8]) came out at 6.25 mg/kg. Besides, the 50% lethal dose (LD50) at 144 h in series [3] (setting [7]) was in the range of 2000 to 3000 mg/kg.
For the molecule `CCOc1cccc2cc(-c3nnn[nH]3)c(=O)oc12` [Example 4, 8-Ethoxy-3-(1H-tetrazol-5-yl)coumarin], the minimal effective dose in series [2] (setting [4]) and in series [2] (setting [6]) was 6.25 mg/kg in each case. Further, the median lethal dose (LD50) at 144 h in series [3] (setting [5]) and in series [3] (setting [7]) was 2500 mg/kg in each case.
As for `CCCOc1cccc2cc(-c3nnn[nH]3)c(=O)oc12` [Example 5, 8-n-Propoxy-3-(1H-tetrazol-5-yl)coumarin], the minimal effective dose in series [2] (setting [8]) amounted to 6.25 mg/kg. Besides, in series [3] (setting [7]), the LD50 at 144 h lay within 2000 to 3000 mg/kg.
As to `CC(C)Oc1cccc2cc(-c3nnn[nH]3)c(=O)oc12` [Example 6, 8-Isopropoxy-3-(1H-tetrazol-5-yl)coumarin], the minimal effective dose in series [2] (setting [4]) and in series [2] (setting [6]) was 1.56 mg/kg throughout. Moreover, the LD50 at 144 h in series [3] (setting [5]) and in series [3] (setting [7]) was 2250 mg/kg in each case.
In the case of `CCCOc1ccc2cc(-c3nnn[nH]3)c(=O)oc2c1` [Example 7, 7-n-Propoxy-3-(1H-tetrazol-5-yl)coumarin], the minimal effective dose in series [2] (setting [8]) was 6.25 mg/kg. The LD50 at 144 h in series [3] (setting [7]) was in the range of 2000 to 3000 mg/kg.
Regarding `CCCCOc1cccc2cc(-c3nnn[nH]3)c(=O)oc12` [Example 8, 8-n-Butoxy-3-(1H-tetrazol-5-yl)coumarin], the minimal effective dose in series [2] (setting [4]) and in series [2] (setting [6]) was 1.56 mg/kg each time. In addition, the LD50 at 144 h in series [3] (setting [5]) and in series [3] (setting [7]) was 2380 mg/kg in each case.
In the case of `CC(C)CCOc1cccc2cc(-c3nnn[nH]3)c(=O)oc12` [Example 9, 8-Isopentyloxy-3-(1H-tetrazol-5-yl)coumarin], the minimal effective dose in series [2] (setting [8]) stood at 0.39 mg/kg. Moreover, in series [3] (setting [7]), the LD50 at 144 h lay in the range of 1000 to 2000 mg/kg.
As to `CCCCCCCOc1cccc2cc(-c3nnn[nH]3)c(=O)oc12` [Example 11, 8-n-Heptyloxy-3-(1H-tetrazol-5-yl)coumarin], the minimal effective dose in series [2] (setting [8]) stood at 1.56 mg/kg. For the same molecule, the LD50 at 144 h in series [3] (setting [7]) fell in the range of 2000 to 3000 mg/kg.
With `CCCCCCCCCOc1cccc2cc(-c3nnn[nH]3)c(=O)oc12` [Example 12, 8-n-Nonyloxy-3-(1H-tetrazol-5-yl)coumarin], the minimal effective dose in series [2] (setting [8]) was 6.25 mg/kg. In series [3] (setting [7]), the LD50 at 144 h was 2000 to 3000 mg/kg.
Taken in the same sequence, the figures for `CCCCCCCCCCCCOc1cccc2cc(-c3nnn[nH]3)c(=O)oc12` [Example 13, 8-n-Dodecyloxy-3-(1H-tetrazol-5-yl)coumarin] were 6.25 mg/kg and 2000 to 3000 mg/kg.
Taken in the same sequence, the figures for `CCCCCCCCCCCCCCCOc1cccc2cc(-c3nnn[nH]3)c(=O)oc12` [Example 14, 8-n-Pentadecyloxy-3-(1H-tetrazol-5-yl)coumarin] were 6.25 mg/kg and 2000 to 3000 mg/kg.
The corresponding values for `CCCCCCCCCCCCCCCCCCOc1cccc2cc(-c3nnn[nH]3)c(=O)oc12` [Example 15, 8-n-Octadecyloxy-3-(1H-tetrazol-5-yl)coumarin] are 6.25 mg/kg and 2000 to 3000 mg/kg.
`C=CCOc1cccc2cc(-c3nnn[nH]3)c(=O)oc12` [Example 16, 8-Allyloxy-3-(1H-tetrazol-5-yl)coumarin]: in series [2] (setting [8]), the minimal effective dose came out at 1.56 mg/kg. Also, the LD50 at 144 h in series [3] (setting [7]) is 2000 to 3000 mg/kg.
For `CC(C)=CCC/C(C)=C/COc1cccc2cc(-c3nnn[nH]3)c(=O)oc12` [Example 17, 8-Geranyloxy-3-(1H-tetrazol-5-yl)coumarin], the minimal effective dose in series [2] (setting [8]) was determined as 6.25 mg/kg. The LD50 at 144 h in series [3] (setting [7]) fell in the range of 500 to 1000 mg/kg.
The corresponding values for `CC(C)=CCCC(C)=CCCC(C)=CCOc1cccc2cc(-c3nnn[nH]3)c(=O)oc12` [Example 18, 8-Farnesyloxy-3-(1H-tetrazol-5-yl)coumarin] are 6.25 mg/kg and 1000 to 2000 mg/kg.
Taken in the same sequence, the figures for `O=c1oc2c(O)cccc2cc1-c1nnn[nH]1` [Example 19, 8-Hydroxy-3-(1H-tetrazol-5-yl)coumarin] were 25 mg/kg and 2000 to 3000 mg/kg.
Consider `CCOc1cc(C)cc2cc(-c3nnn[nH]3)c(=O)oc12` [Example 20, 8-Ethoxy-6-methyl-3-(1H-tetrazol-5-yl)coumarin], for which the minimal effective dose in series [2] (setting [4]) and in series [2] (setting [6]) was 1.56 mg/kg in each case. The 50% lethal dose (LD50) at 144 h in series [3] (setting [5]) and in series [3] (setting [7]) was 2360 mg/kg each time.
Regarding `CCCOc1cc(C)cc2cc(-c3nnn[nH]3)c(=O)oc12` [Example 21, 6-Methyl-8-n-propoxy-3-(1H-tetrazol-5-yl)coumarin], the minimal effective dose in series [2] (setting [8]) was 1.56 mg/kg. Moreover, the LD50 at 144 h in series [3] (setting [7]) fell in the range of 1000 to 2000 mg/kg.
For the molecule `Cc1cc(OC(C)C)c2oc(=O)c(-c3nnn[nH]3)cc2c1` [Example 22, 8-Isopropoxy-6-methyl-3-(1H-tetrazol-5-yl)coumarin], the minimal effective dose in series [2] (setting [4]) and in series [2] (setting [6]) was 1.56 mg/kg in each case. For the same molecule, the LD50 at 144 h in series [3] (setting [5]) and in series [3] (setting [7]) was 2200 mg/kg throughout.
For the molecule `CCc1cc2cc(-c3nnn[nH]3)c(=O)oc2cc1OC` [Example 23, 6-Ethyl-7-methoxy-3-(1H-tetrazol-5-yl)coumarin], the minimal effective dose in series [2] (setting [8]) turned out to be 1.56 mg/kg. In addition, the LD50 at 144 h in series [3] (setting [7]) fell in the range of 500 to 1000 mg/kg.
In the case of `COc1ccc2cc(-c3nnn[nH]3)c(=O)oc2c1C` [Example 24, 7-Methoxy-8-methyl-3-(1H-tetrazol-5-yl)coumarin], in series [2] (setting [8]), the minimal effective dose was 6.25 mg/kg. Further, the LD50 at 144 h in series [3] (setting [7]) is 300 to 1000 mg/kg.
On to `COc1cc2cc(-c3nnn[nH]3)c(=O)oc2cc1C` [Example 25, 6-Methoxy-7-methyl-3-(1H-tetrazol-5-yl)coumarin], for which the minimal effective dose in series [2] (setting [8]) was 12.5 mg/kg. The median lethal dose (LD50) at 144 h in series [3] (setting [7]) fell in the range of 500 to 1000 mg/kg.
With `C=CCOc1cc(C)cc2cc(-c3nnn[nH]3)c(=O)oc12` [Example 26, 8-Allyloxy-6-methyl-3-(1H-tetrazol-5-yl)coumarin], the minimal effective dose in series [2] (setting [8]) was determined as 1.56 mg/kg. Further, the LD50 at 144 h in series [3] (setting [7]) was 2000 to 3000 mg/kg.
The corresponding values for `Cc1cc(O)c2oc(=O)c(-c3nnn[nH]3)cc2c1` [Example 27, 8-Hydroxy-6-methyl-3-(1H-tetrazol-5-yl)coumarin] are 12.5 mg/kg and 2000 to 3000 mg/kg.
The corresponding values for `COc1cc2oc(=O)c(-c3nnn[nH]3)cc2cc1CC=C(C)C` [Example 28, 7-Methoxy-6-(3-methyl-2-butenyl)-3-(1H-tetrazol-5-yl)coumarin] are 1.56 mg/kg and 500 to 1000 mg/kg.
Taken in the same sequence, the figures for `CCOc1cc2oc(=O)c(-c3nnn[nH]3)cc2cc1CC=C(C)C` [Example 29, 7-Ethoxy-6-(3-methyl-2-butenyl)-3-(1H-tetrazol-5-yl)coumarin] were 12.5 mg/kg and 500 to 1000 mg/kg.
For `CCOc1cc(OCC)c2cc(-c3nnn[nH]3)c(=O)oc2c1` [Example 30, 5,7-Diethoxy-3-(1H-tetrazol-5-yl)coumarin], the minimal effective dose in series [2] (setting [8]) was determined as 12.5 mg/kg. Besides, the LD50 at 144 h in series [3] (setting [7]) was in the range of 2000 to 3000 mg/kg.
In the case of `Cc1ccc2oc(=O)c(-c3nnn[nH]3)c(C)c2c1` [J, reference compound], the minimal effective dose in series [2] (setting [4]) came out at 25 mg/kg. This molecule showed a median lethal dose (LD50) at 144 h in series [3] (setting [5]) of 533 mg/kg.
